Reference: patent US20230027066A1 (Urovant Sciences GmbH, priority 2019, published 2023)

Tested on: men and women with overactive bladder
Test: Phase 3 study of vibegron 75 mg vs placebo and tolterodine ER 4 mg, 12 weeks, efficacy (voiding and urine volume diary)
Format: in vivo, human
Conditions: for Patients with at Least 75% Reduction in Total Incontinence, Adjusted (%) / Patients with at Least 75% Reduction in Total Incontinence, Adjusted n / Patients with at Least 75% Reduction in Total Incontinence, Unadjusted (%) / Patients with at Least 75% Reduction in Total Incontinence, Unadjusted n / Total Incontinence 75% responders, Active - Placebo CMH Difference: FAS-I
Procedure: Enrollment of patients included individuals with OAB Wet (those with UUI, the involuntary loss of urine accompanied by urgency) and OAB Dry (those without UUI). A total of 1,518 patients were randomized across 215 study sites into one of three groups for a 12-week treatment period.
The study consisted of a Screening Period (1 to 5 weeks), a single-blind Run-in Period (2 weeks), a randomized double-blind Treatment Period (12 weeks), and a Follow-up Period (4 weeks).
Tolterodine ER 4 mg was the active control. […] Between the Baseline and Week 12 Visits, patients had study assessments at Week 4 and Week 8.
The Patient Voiding Diary was used by participants (via the eDiary or paper Diary) to record the frequency of daily OAB symptoms including all micturitions, urgency, incontinence, and main reason for incontinence by selecting the respective box for each symptom occurring during the course of a given day and night.
Urine volume data were collected separately by patients using the Urine Volume component of the eDiary, or the paper Urine Volume Chart. The Urine Volume Chart is a tool used in clinical practice and clinical investigation to assess voiding functions over a 24-hour period and is regarded as a useful instrument in the investigation of patients with voiding symptoms. Urine volume may be collected during any one (1) of the 7 Diary Days prior to the visit, and it should be recorded for ˜24 hours starting from the time the patient gets up for the day and continues until the time the patient gets up for the day on the next day.
For the purpose of this study, the number of micturitions was defined as the number of times a patient has voided in the toilet as indicated on the Patient Voiding Diary. Average daily micturitions were calculated using the daily entries in the Patient Voiding Diary, which was completed over the 7 days prior to each study visit. Average daily number of micturitions were calculated as the total number of micturitions that occurred on a Complete Diary Day divided by the number of Complete Diary Days in the Patient Voiding Diary. A complete diary day required confirmation by the patient in the Patient Voiding Diary that all voids and leakages had been recorded for the diary day. Baseline was defined as the average number of micturitions occurring during the last evaluable diary prior to the Baseline Visit.
The number of UUI episodes was defined as the number of times a patient had checked “urge” as the reason for accidental urine leakage. Average daily UUI episodes at each study visit were calculated in the same manner as described above for the micturition endpoint. The UUI endpoint were analyzed using only OAB Wet patients.
For the analysis of the co-primary endpoints (change from baseline in average number of daily micturitions at Week 12 and change from baseline in average number of daily urge urinary incontinence episodes at Week 12, and placebo adjustment of each), a mixed model for repeated measure (MMRM) with restricted maximum likelihood estimation was used. This model corrects for dropout and accounts for the fact that measurements taken on the same patient over time tend to be correlated by using all available information on patients within the same covariate set to derive an estimate of the treatment effect for a dropout-free population. The analysis model for each efficacy endpoint includes terms for treatment, visit, OAB Type (Wet vs Dry), Sex (Female vs Male), Region (US vs Rest of World), baseline score, and interaction of visit by treatment.
Primary inferences were drawn from treatment differences for the changes from baseline derived from the MMRM models at Week 12. As part of secondary objectives, the treatment differences for each post baseline visit were also derived using the same MMRM model. […]

[1] = subjects with prior ACH use, vibegron 75 mg, Week 12
[2] = vibegron 75 mg or tolterodine ER 4 mg
[3] = vibegron 75 mg or tolterodine ER 4 mg once daily
[4] = vibegron 75 mg or tolterodine ER 4 mg once daily, OAB Wet
[5] = vibegron 75 mg or tolterodine ER 4 mg, OAB Wet

O=C(Nc1ccc(C[C@@H]2CC[C@H]([C@H](O)c3ccccc3)N2)cc1)[C@@H]1CCc2nccc(=O)n21 [Vibegron, (6S)-N-[4-[[(2S,5R)−5-[(R)-hydroxy(phenyl)methyl]pyrrolidin−2-yl]methyl]phenyl]−4-oxo−7,8-dihydro−6H-pyrrolo[1,2-a]pyrimidine−6-carboxamide]
UUI Episodes, change at Week 12, mean (SD) (Week 12, subpopulation Age ≥65 years): −1.94 (2.50) | Daily Urgency, change at Week 12 (Week 12, subpopulation Age ≥65 years, posthoc analysis): −2.7 | Micturitions: Week 12 CFB Mean (descriptive statistics) (Week 12, ≥65 yrs): −2.10 | Patients with at Least 75% Reduction in Total Incontinence, Adjusted (%) (baseline to Week 2): 22.1% | Patients with at Least 75% Reduction in Total Incontinence, Adjusted n (baseline to Week 2): 89 | Patients with at Least 75% Reduction in Total Incontinence, Unadjusted (%) (baseline to Week 2): 23.6% | Patients with at Least 75% Reduction in Total Incontinence, Unadjusted n (baseline to Week 2): 95 | Total Incontinence 75% responders, Active - Placebo CMH Difference (baseline to Week 2): 9.3 | Patients with at Least 75% Reduction in Total Incontinence, Adjusted (%) (baseline to Week 4): 31.5% | Patients with at Least 75% Reduction in Total Incontinence, Adjusted n (baseline to Week 4): 127 | Patients with at Least 75% Reduction in Total Incontinence, Unadjusted (%) (baseline to Week 4): 34.5% | Patients with at Least 75% Reduction in Total Incontinence, Unadjusted n (baseline to Week 4): 139 | Total Incontinence 75% responders, Active - Placebo CMH Difference (baseline to Week 4): 11.8 | Patients with at Least 75% Reduction in Total Incontinence, Adjusted (%) (baseline to Week 8): 42.0% | Patients with at Least 75% Reduction in Total Incontinence, Adjusted n (baseline to Week 8): 169 | Patients with at Least 75% Reduction in Total Incontinence, Unadjusted (%) (baseline to Week 8): 43.7% | Patients with at Least 75% Reduction in Total Incontinence, Unadjusted n (baseline to Week 8): 176 | Total Incontinence 75% responders, Active - Placebo CMH Difference (baseline to Week 8): 14.7 | Patients with at Least 75% Reduction in Total Incontinence, Adjusted (%) (baseline to Week 12): 47.3% | Patients with at Least 75% Reduction in Total Incontinence, Adjusted n (baseline to Week 12): 191 | Patients with at Least 75% Reduction in Total Incontinence, Unadjusted (%) (baseline to Week 12): 50.1% | Patients with at Least 75% Reduction in Total Incontinence, Unadjusted n (baseline to Week 12): 202 | Total Incontinence 75% responders, Active - Placebo CMH Difference (baseline to Week 12): 15.8 | UUI, Week 12 LS mean change from baseline (placebo adjusted) (95% CI) (subgroup Age <65 years, vibegron 75 mg or tolterodine ER 4 mg): −0.5 (−0.9 to −0.1) | UUI, Week 12 LS mean change from baseline (placebo adjusted) (95% CI) (subgroup Age ≥65 years, vibegron 75 mg or tolterodine ER 4 mg): −0.8 (−1.2 to −0.3) | UUI, Week 12 LS mean change from baseline (placebo adjusted) (95% CI) (subgroup Age ≥75 years (posthoc analysis), vibegron 75 mg or tolterodine ER 4 mg): −1.6 (−2.4 to −0.8) | UUI, Week 12 LS mean change from baseline (placebo adjusted) (95% CI) (subgroup Females, vibegron 75 mg or tolterodine ER 4 mg): −0.7 (−1.0 to −0.4) | UUI, Week 12 LS mean change from baseline (placebo adjusted) (95% CI) (subgroup Males, vibegron 75 mg or tolterodine ER 4 mg): −0.1 (−0.9 to 0.8) | UUI, Week 12 LS mean change from baseline (placebo adjusted) (95% CI) (subgroup Non-White, vibegron 75 mg or tolterodine ER 4 mg): 0.0 (−0.6 to 0.7) | UUI, Week 12 LS mean change from baseline (placebo adjusted) (95% CI) (subgroup Region: Non-US, vibegron 75 mg or tolterodine ER 4 mg): −1.1 (−1.8 to −0.3) | UUI, Week 12 LS mean change from baseline (placebo adjusted) (95% CI) (subgroup Region: US, vibegron 75 mg or tolterodine ER 4 mg): −0.5 (−0.8 to −0.2) | UUI, Week 12 LS mean change from baseline (placebo adjusted) (95% CI) (subgroup White, vibegron 75 mg or tolterodine ER 4 mg): −0.8 (−1.1 to −0.4) | decrease in average number of UUI episodes in 24 hours, times the decrease with placebo [1]: about 1.75 times | decrease in average number of micturitions in 24 hours, more than the decrease with placebo [1]: about 0.7 | decrease in average number of micturitions in 24 hours, more than the decrease with placebo (subjects with prior B3 use, vibegron 75 mg, Week 12): about 2.9 | total daily incontinence, placebo adjusted, week 2 (vibegron 75 mg): −0.7 | average volume voided, placebo-adjusted mean change from baseline, week 12 [2]: 21.2 mL | placebo-adjusted mean total daily incontinence episodes, week 12 [2]: −0.7 episodes | proportion of patients (UUI responders) with 75% or more reduction in daily UUI episodes, week 12 [2]: 49.3% | Micturitions, active-placebo LS mean difference, Week 2 [3]: −0.5 | Micturitions, active-placebo LS mean difference, Week 4 [3]: −0.6 | Micturitions, active-placebo LS mean difference, Week 8 [3]: −0.6 | Micturitions, active-placebo LS mean difference, Week 12 [3]: −0.5 | Micturitions, average daily number, Week 2 mean [3]: 10.18 | Micturitions, average daily number, Week 4 mean [3]: 9.84 | Micturitions, average daily number, Week 8 mean [3]: 9.53 | Micturitions, average daily number, Week 12 mean [3]: 9.32 | Micturitions, change from baseline LS mean, Week 2 [3]: −0.8 | Micturitions, change from baseline LS mean, Week 4 [3]: −1.1 | Micturitions, change from baseline LS mean, Week 8 [3]: −1.4 | Micturitions, change from baseline LS mean, Week 12 [3]: −1.8 | UUI episodes, active-placebo LS mean difference, Week 2 [4]: −0.6 | UUI episodes, active-placebo LS mean difference, Week 4 [4]: −0.7 | UUI episodes, active-placebo LS mean difference, Week 8 [4]: −0.6 | UUI episodes, average daily number, Week 2 mean [4]: 2.03 | UUI episodes, average daily number, Week 4 mean [4]: 1.77 | UUI episodes, average daily number, Week 8 mean [4]: 1.65 | UUI episodes, average daily number, Week 12 mean [4]: 1.46 | UUI episodes, change from baseline LS mean, Week 2 [4]: −1.4 | UUI episodes, change from baseline LS mean, Week 4 [4]: −1.7 | UUI episodes, change from baseline LS mean, Week 8 [4]: −1.8 | UUI episodes, change from baseline LS mean, Week 12 [4]: −2.0 | Estimated incidence of subjects with 75% decrease from baseline in UUI episodes, Week 2 [5]: 24.3 | Estimated incidence of subjects with 75% decrease from baseline in UUI episodes, Week 4 [5]: 26.6 | Estimated incidence of subjects with 75% decrease from baseline in UUI episodes, Week 8 [5]: 41.3 | Estimated incidence of subjects with 75% decrease from baseline in UUI episodes, Week 12 [5]: 52.7 | First 75% reduction in UUI episodes, Events/Censored, Week 2 [5]: 98/305 | First 75% reduction in UUI episodes, Events/Censored, Week 4 [5]: 107/296 | First 75% reduction in UUI episodes, Events/Censored, Week 8 [5]: 166/237 | First 75% reduction in UUI episodes, Events/Censored, Week 12 [5]: 210/193 | Overall time to first 75% decrease in UUI episodes, 25th percentile [5]: 3.9 weeks | Overall time to first 75% decrease in UUI episodes, 75th percentile [5]: 13.1 weeks | Overall time to first 75% decrease in UUI episodes, median (95% CI) [5]: 8.4 (8.1 to 12.1) weeks | Time to first 75% decrease in UUI episodes, Events/Censored (overall) [5]: 239/164 | total daily incontinence, mean change from baseline (reduction) (vibegron 75 mg, after 12 weeks): 2.3 episodes | statistically significant onset of action, reduction in urge urinary incontinence (UUI) (vibegron 75 mg/day, FIG. 4): 2 weeks | statistically significant onset of action, reduction in micturitions (vibegron 75 mg/day, FIG. 5): 2 weeks | statistically significant onset of action, reduction in urgency episodes (vibegron 75 mg/day, FIG. 6): 2 weeks | statistically significant onset of action, urge incontinence responder rate (vibegron 75 mg/day, FIG. 7): 2 weeks | statistically significant onset of action, reductions in total incontinence episodes (vibegron 75 mg/day, FIG. 9): 2 weeks | statistically significant onset of action, improvement in volume voided (vibegron 75 mg/day, FIG. 10): 2 weeks
